What was measured:
[1] = system: Phytophthora infestans; assay: microbe, parasite or virus in culture; format: cell-based; conditions: in Secale cereale, 168 h, read-out: control compared to the untreated check
[2] = system: Phytophthora infestans; assay: whole plant or invertebrate; format: in vivo, Phytophthora infestans on tomato plants; conditions: in Solanum lycopersicum, 24 h, read-out: control compared to the untreated check
[3] = system: Plasmopara viticola; assay: Example B: Plasmopara viticola test in grape (greenhouse, preventive); format: in vivo; conditions: 24 h, grape seedlings sprayed one day before inoculation, disease severity rating, read-out: control compared to the untreated check
Description: Example B: Plasmopara viticola Test in Grape
The compound were dissolved in 2% DMSO/Acetone & then mixed with water containing emulsifier to a calibrated spray volume of 50 mL. The spray solutions were poured into spray bottles for further applications.
To test the preventive activity of compounds, 5 week old healthy grape seedlings, cv. Thompson seedless, raised in the greenhouse, were sprayed with the active compound preparation at the stated application rates inside spray cabinets using hallow cone nozzles. One day after treatment, the plants were inoculated with an inoculum suspension (sterile water) containing 6×10^4 Plasmopara viticola inoculum. The inoculated plants were then kept in a greenhouse chamber at 18-21° C. temperature and 95-100% relative humidity for disease expression.
A visual assessment of the performance of the compound was carried out by rating the disease severity (0-100% scale) on treated plants 3, 7 and 10 days after application. Efficacy (% control) of the compound was calculated by comparing the disease rating in the treatment with the one of the untreated control. The compounds were also assessed for their plant compatibility by recording symptoms like necrosis, chlorosis & stunting

Row | SMILES | inhibition of growth at 30 ppm [1] [%] | pest or weed control at 50 ppm [2] [%] | pest or weed control at 50 ppm [3] [%]
1 | O=C(COc1nccnc1C(F)(F)F)N1CCC(c2nc(C3=NOC(c4c(F)cccc4Cl)C3)cs2)CC1 (stereo not shown) [Compound 1, 1-(4-(4-(5-(2-chloro-6-fluorophenyl)-4,5-dihydroisoxazol-3-yl)thiazol-2-yl)piperidin-1-yl)-2-((3-(trifluoromethyl)pyrazin-2-yl)oxy)ethan-1-one] | ≥ 70 | ≥ 70 | ≥ 70
2 | O=C(COc1nccnc1C(F)(F)F)N1CCC(c2nc(C3=NOC(c4c(Cl)cc(Cl)cc4Cl)C3)cs2)CC1 (stereo not shown) [Compound 2, 1-(4-(4-(5-(2,4,6-trichlorophenyl)-4,5-dihydroisoxazol-3-yl)thiazol-2-yl)piperidin-1-yl)-2-((3-(trifluoromethyl)pyrazin-2-yl)oxy)ethan-1-one] | ≥ 70 | ≥ 70 | ≥ 70
3 | O=C(COc1nccnc1C(F)(F)F)N1CCC(c2nc(C3=NOC(c4c(Cl)cccc4Cl)C3)cs2)CC1 (stereo not shown) [Compound 3, 1-(4-(4-(5-(2,6-dichlorophenyl)-4,5-dihydroisoxazol-3-yl)thiazol-2-yl)piperidin-1-yl)-2-((3-(trifluoromethyl)pyrazin-2-yl)oxy)ethan-1-one] | ≥ 70 | ≥ 70 | ≥ 70
4 | O=C(COc1nccnc1C(F)(F)F)N1CCC(c2nc(C3=NOC(c4c(F)cccc4F)C3)sc2Cl)CC1 (stereo not shown) [Compound 22, 1-(4-(5-chloro-2-(5-(2,6-difluorophenyl)-4,5-dihydroisoxazol-3-yl)thiazol-4-yl)piperidin-1-yl)-2-((3-(trifluoromethyl)pyrazin-2-yl)oxy)ethan-1-one] | – | – | ≥ 70
5 | O=C(COc1nccnc1C(F)(F)F)N1CCC(c2csc(C3=NOC(c4c(F)cccc4F)C3)n2)CC1 (stereo not shown) [Compound 23, 1-(4-(2-(5-(2,6-difluorophenyl)-4,5-dihydroisoxazol-3-yl)thiazol-4-yl)piperidin-1-yl)-2-((3-(trifluoromethyl)pyrazin-2-yl)oxy)ethan-1-one] | ≥ 70 | – | ≥ 70
6 | O=C(COc1ccc(C(F)(F)F)nn1)N1CCC(c2nc(C3=NOC(c4c(Cl)cc(Cl)cc4Cl)C3)cs2)CC1 (stereo not shown) [Compound 37, 1-(4-(4-(5-(2,4,6-trichlorophenyl)-4,5-dihydroisoxazol-3-yl)thiazol-2-yl)piperidin-1-yl)-2-((6-(trifluoromethyl)pyridazin-3-yl)oxy)ethan-1-one] | ≥ 70 | ≥ 70 | –
7 | O=C(COc1ccc(C(F)(F)F)nn1)N1CCC(c2nc(C3=NOC(c4c(Cl)cccc4Cl)C3)cs2)CC1 (stereo not shown) [Compound 38, 1-(4-(4-(5-(2,6-dichlorophenyl)-4,5-dihydroisoxazol-3-yl)thiazol-2-yl)piperidin-1-yl)-2-((6-(trifluoromethyl)pyridazin-3-yl)oxy)ethan-1-one] | ≥ 70 | ≥ 70 | –
8 | O=C(COc1ccc(C(F)(F)F)nn1)N1CCC(c2nc(C3=NOC(c4c(F)cccc4Cl)C3)cs2)CC1 (stereo not shown) [Compound 39, 1-(4-(4-(5-(2-chloro-6-fluorophenyl)-4,5-dihydroisoxazol-3-yl)thiazol-2-yl)piperidin-1-yl)-2-((6-(trifluoromethyl)pyridazin-3-yl)oxy)ethan-1-one] | ≥ 70 | ≥ 70 | –
9 | N#Cc1cccc(Cl)c1C1CC(c2csc(C3CCN(C(=O)COc4ccc(C(F)(F)F)nn4)CC3)n2)=NO1 (stereo not shown) [Compound 40, 3-chloro-2-(3-(2-(1-(2-((6-(trifluoromethyl)pyridazin-3-yl)oxy)acetyl)piperidin-4-yl)thiazol-4-yl)-4,5-dihydroisoxazol-5-yl)benzonitrile] | ≥ 70 | ≥ 70 | –
10 | CS(=O)(=O)Oc1cccc(Cl)c1C1CC(c2csc(C3CCN(C(=O)COc4ccc(C(F)(F)F)nn4)CC3)n2)=NO1 (stereo not shown) [Compound 41, 3-chloro-2-(3-(2-(1-(2-((6-(trifluoromethyl)pyridazin-3-yl)oxy)acetyl)piperidin-4-yl)thiazol-4-yl)-4,5-dihydroisoxazol-5-yl)phenyl methanesulfonate] | ≥ 70 | ≥ 70 | –
11 | O=C(COc1ccc(C(F)(F)F)nn1)N1CCC(c2nc(C3=NOC(c4c(F)cccc4F)C3)cs2)CC1 (stereo not shown) [Compound 42, 1-(4-(4-(5-(2,6-difluorophenyl)-4,5-dihydroisoxazol-3-yl)thiazol-2-yl)piperidin-1-yl)-2-((6-(trifluoromethyl)pyridazin-3-yl)oxy)ethan-1-one] | ≥ 70 | ≥ 70 | –
12 | O=C(COc1ccc(C(F)(F)F)nn1)N1CCC(c2nc(C3=NOC(c4c(F)cccc4Br)C3)cs2)CC1 (stereo not shown) [Compound 43, 1-(4-(4-(5-(2-bromo-6-fluorophenyl)-4,5-dihydroisoxazol-3-yl)thiazol-2-yl)piperidin-1-yl)-2-((6-(trifluoromethyl)pyridazin-3-yl)oxy)ethan-1-one] | ≥ 70 | ≥ 70 | –
13 | O=C(COc1nccnc1C(F)(F)F)N1CCC(c2nc(C3OCc4c(F)ccc(F)c4CO3)cs2)CC1 [Compound 64, 1-(4-(4-(6,9-difluoro-1,5-dihydrobenzo[e][1,3]dioxepin-3-yl)thiazol-2-yl)piperidin-1-yl)-2-((3-(trifluoromethyl)pyrazin-2-yl)oxy)ethan-1-one] | ≥ 70 | ≥ 70 | –
14 | COc1nc(OC)nc(OCC(=O)N2CCC(c3nc(C4=NOC(c5c(F)cccc5Br)C4)cs3)CC2)n1 (stereo not shown) [Compound 110, 1-(4-(4-(5-(2-bromo-6-fluorophenyl)-4,5-dihydroisoxazol-3-yl)thiazol-2-yl)piperidin-1-yl)-2-((4,6-dimethoxy-1,3,5-triazin-2-yl)oxy)ethan-1-one] | ≥ 70 | ≥ 70 | ≥ 70
15 | N#Cc1ccnc(OCC(=O)N2CCC(c3nc(C4=NOC(c5c(Cl)cccc5Cl)C4)cs3)CC2)n1 (stereo not shown) [Compound 112, 2-(2-(4-(4-(5-(2,6-dichlorophenyl)-4,5-dihydroisoxazol-3-yl)thiazol-2-yl)piperidin-1-yl)-2-oxoethoxy)pyrimidine-4-carbonitrile] | ≥ 70 | ≥ 70 | ≥ 70
16 | CS(=O)(=O)Oc1cccc(Cl)c1C1CC(c2csc(C3CCN(C(=O)COc4nccc(C#N)n4)CC3)n2)=NO1 (stereo not shown) [Compound 113, 3-chloro-2-(3-(2-(1-(2-((4-cyanopyrimidin-2-yl)oxy)acetyl)piperidin-4-yl)thiazol-4-yl)-4,5-dihydroisoxazol-5-yl)phenyl methanesulfonate] | ≥ 70 | ≥ 70 | ≥ 70
17 | N#Cc1ccnc(OCC(=O)N2CCC(c3nc(C4=NOC(c5c(Cl)cccc5C(F)(F)F)C4)cs3)CC2)n1 (stereo not shown) [Compound 114, 2-(2-(4-(4-(5-(2-chloro-6-(trifluoromethyl)phenyl)-4,5-dihydroisoxazol-3-yl)thiazol-2-yl)piperidin-1-yl)-2-oxoethoxy)pyrimidine-4-carbonitrile] | ≥ 70 | ≥ 70 | ≥ 70
18 | N#Cc1ccnc(OCC(=O)N2CCC(c3nc(C4=NOC(c5c(F)cccc5F)C4)cs3)CC2)n1 (stereo not shown) [Compound 116, 2-(2-(4-(4-(5-(2,6-difluorophenyl)-4,5-dihydroisoxazol-3-yl)thiazol-2-yl)piperidin-1-yl)-2-oxoethoxy)pyrimidine-4-carbonitrile] | ≥ 70 | ≥ 70 | ≥ 70
19 | N#Cc1ccnc(OCC(=O)N2CCC(c3nc(C4=NOC(c5c(F)cccc5Cl)C4)cs3)CC2)n1 (stereo not shown) [Compound 118, 2-(2-(4-(4-(5-(2-chloro-6-fluorophenyl)-4,5-dihydroisoxazol-3-yl)thiazol-2-yl)piperidin-1-yl)-2-oxoethoxy)pyrimidine-4-carbonitrile] | ≥ 70 | ≥ 70 | ≥ 70
20 | O=C(COc1nccnc1Cl)N1CCC(c2nc(C3=NOC(c4c(Cl)cc(Cl)cc4Cl)C3)cs2)CC1 (stereo not shown) [Compound 123, 2-((3-chloropyrazin-2-yl)oxy)-1-(4-(4-(5-(2,4,6-trichlorophenyl)-4,5-dihydroisoxazol-3-yl)thiazol-2-yl)piperidin-1-yl)ethan-1-one] | – | ≥ 70 | ≥ 70
21 | O=C(COc1nccnc1Cl)N1CCC(c2nc(C3=NOC(c4c(F)cccc4Cl)C3)cs2)CC1 (stereo not shown) [Compound 125, 1-(4-(4-(5-(2-chloro-6-fluorophenyl)-4,5-dihydroisoxazol-3-yl)thiazol-2-yl)piperidin-1-yl)-2-((3-chloropyrazin-2-yl)oxy)ethan-1-one] | – | ≥ 70 | ≥ 70
22 | CS(=O)(=O)Oc1cccc(Cl)c1C1CC(c2csc(C3CCN(C(=O)COc4nccnc4Cl)CC3)n2)=NO1 (stereo not shown) [Compound 127, 3-chloro-2-(3-(2-(1-(2-((3-chloropyrazin-2-yl)oxy)acetyl)piperidin-4-yl)thiazol-4-yl)-4,5-dihydroisoxazol-5-yl)phenyl methanesulfonate] | – | ≥ 70 | ≥ 70

Source: US12471596B2 (priority 2019, dated 2025)
